Source: article PMC13315578

T1: Min Elp3 (Methanocaldococcus infernus, UniProt D5VRB9)
T1 construct: gene Metin_0452; E. coli codon-optimized gene, N-terminal 6xHis tag with TEV site (pET28a-tev), tag kept for MST; E. coli BL21(DE3) host with isc operon; anaerobically purified, [4Fe-4S] cluster chemically reconstituted
T1 sequence (D5VRB9 1-534): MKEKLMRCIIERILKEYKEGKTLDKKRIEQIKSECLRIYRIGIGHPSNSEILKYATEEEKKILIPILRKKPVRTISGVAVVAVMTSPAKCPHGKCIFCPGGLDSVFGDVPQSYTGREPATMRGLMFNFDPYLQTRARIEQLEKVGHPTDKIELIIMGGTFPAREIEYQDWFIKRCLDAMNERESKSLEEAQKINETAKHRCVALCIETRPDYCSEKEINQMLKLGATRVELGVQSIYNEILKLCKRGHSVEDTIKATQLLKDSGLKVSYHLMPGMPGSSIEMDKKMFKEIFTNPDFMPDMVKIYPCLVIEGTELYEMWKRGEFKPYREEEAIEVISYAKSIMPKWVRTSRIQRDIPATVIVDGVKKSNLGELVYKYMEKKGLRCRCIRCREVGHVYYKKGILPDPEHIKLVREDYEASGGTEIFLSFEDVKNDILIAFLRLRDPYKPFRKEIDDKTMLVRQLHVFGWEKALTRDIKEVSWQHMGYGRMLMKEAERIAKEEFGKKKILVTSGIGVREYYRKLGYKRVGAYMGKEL

T2: Min Elp3 WT (Methanocaldococcus infernus, UniProt D5VRB9 1-534)
T2 sequence: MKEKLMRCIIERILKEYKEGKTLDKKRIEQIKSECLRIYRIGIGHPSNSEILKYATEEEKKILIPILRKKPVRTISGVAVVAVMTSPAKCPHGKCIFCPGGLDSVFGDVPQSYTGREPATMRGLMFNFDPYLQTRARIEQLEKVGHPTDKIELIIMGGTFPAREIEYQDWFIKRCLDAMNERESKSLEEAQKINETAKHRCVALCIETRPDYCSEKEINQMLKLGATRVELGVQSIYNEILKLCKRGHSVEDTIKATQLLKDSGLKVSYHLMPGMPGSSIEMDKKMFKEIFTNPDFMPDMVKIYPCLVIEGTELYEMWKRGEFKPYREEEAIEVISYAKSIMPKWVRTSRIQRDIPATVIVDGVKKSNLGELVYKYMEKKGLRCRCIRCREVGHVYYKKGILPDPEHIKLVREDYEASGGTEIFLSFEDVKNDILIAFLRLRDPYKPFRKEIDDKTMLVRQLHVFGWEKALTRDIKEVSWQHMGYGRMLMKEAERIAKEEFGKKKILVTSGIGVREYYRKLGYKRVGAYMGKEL


Tests used:
Min Elp3 [1] = target: T3, Min Elp3 (Methanocaldococcus infernus, UniProt D5VRB9, Y304A); test: microscale thermophoresis, hill fit; format: binding; settings: anaerobic, pH 7.5, room temperature; His-tagged protein labelled with iFluor 647-Tris NTA; no tRNA
T3 construct: gene Metin_0452; E. coli codon-optimized gene, N-terminal 6xHis tag with TEV site (pET28a-tev), tag kept for MST; E. coli BL21(DE3) host with isc operon; anaerobically purified, [4Fe-4S] cluster chemically reconstituted
T3 sequence (D5VRB9 whole entry Y304A): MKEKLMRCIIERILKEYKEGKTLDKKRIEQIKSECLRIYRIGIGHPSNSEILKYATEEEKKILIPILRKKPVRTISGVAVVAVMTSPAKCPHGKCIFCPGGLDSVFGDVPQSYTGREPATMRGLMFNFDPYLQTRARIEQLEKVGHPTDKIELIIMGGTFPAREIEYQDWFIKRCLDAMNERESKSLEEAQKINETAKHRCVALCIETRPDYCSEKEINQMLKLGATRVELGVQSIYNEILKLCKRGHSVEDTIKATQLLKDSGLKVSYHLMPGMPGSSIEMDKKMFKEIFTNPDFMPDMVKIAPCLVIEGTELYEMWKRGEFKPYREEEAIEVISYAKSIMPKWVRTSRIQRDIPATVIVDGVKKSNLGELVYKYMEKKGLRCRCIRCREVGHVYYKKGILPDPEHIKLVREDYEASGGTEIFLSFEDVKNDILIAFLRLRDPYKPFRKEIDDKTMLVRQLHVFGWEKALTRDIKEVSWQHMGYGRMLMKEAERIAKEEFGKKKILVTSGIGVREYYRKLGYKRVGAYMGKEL

Min Elp3 [2] = target: T1, Min Elp3; test: microscale thermophoresis, hill fit; format: binding; settings: anaerobic, pH 7.5, room temperature; His-tagged protein labelled with iFluor 647-Tris NTA; no tRNA
Min Elp3 [3] = target: T4, Min Elp3 (Methanocaldococcus infernus, UniProt D5VRB9, E207A); test: microscale thermophoresis, hill fit; format: binding; settings: anaerobic, pH 7.5, room temperature; His-tagged protein labelled with iFluor 647-Tris NTA; no tRNA
T4 construct: gene Metin_0452; E. coli codon-optimized gene, N-terminal 6xHis tag with TEV site (pET28a-tev), tag kept for MST; E. coli BL21(DE3) host with isc operon; anaerobically purified, [4Fe-4S] cluster chemically reconstituted
T4 sequence (D5VRB9 whole entry E207A): as the sequence (D5VRB9 whole entry Y304A) above, with E207A, A304Y counted along it

Min Elp3 [4] = target: T5, Min Elp3 (Methanocaldococcus infernus, UniProt D5VRB9, K302A); test: microscale thermophoresis, hill fit; format: binding; settings: anaerobic, pH 7.5, room temperature; His-tagged protein labelled with iFluor 647-Tris NTA; no tRNA
T5 construct: gene Metin_0452; E. coli codon-optimized gene, N-terminal 6xHis tag with TEV site (pET28a-tev), tag kept for MST; E. coli BL21(DE3) host with isc operon; anaerobically purified, [4Fe-4S] cluster chemically reconstituted
T5 sequence (D5VRB9 whole entry K302A): as the sequence (D5VRB9 whole entry Y304A) above, with K302A, A304Y counted along it

Min Elp3 [5] = target: T6, Min Elp3 (Methanocaldococcus infernus, UniProt D5VRB9, M156W); test: microscale thermophoresis, hill fit; format: binding; settings: anaerobic, pH 7.5, room temperature; His-tagged protein labelled with iFluor 647-Tris NTA; no tRNA
T6 construct: gene Metin_0452; E. coli codon-optimized gene, N-terminal 6xHis tag with TEV site (pET28a-tev), tag kept for MST; E. coli BL21(DE3) host with isc operon; anaerobically purified, [4Fe-4S] cluster chemically reconstituted
T6 sequence (D5VRB9 whole entry M156W): as the sequence (D5VRB9 whole entry Y304A) above, with M156W, A304Y counted along it

Min Elp3 WT = target: T2, Min Elp3 WT; test: EMSA; EMSA: 250 nM tRNA, 0-20 uM Elp3, 100 mM HEPES pH 7.5, 750 mM NaCl, 25 mM DTT, 20 °C 30 min; 5% TBE gel at 4 °C; settings: protein: recombinant; tags: N-terminal 6xHis-TEV site (pET28a-tev); tRNA fold, annealed

| Molecule | KD (Min Elp3 [1]) | KD (Min Elp3 [2]) | KD (Min Elp3 [3]) | KD (Min Elp3 [4]) | KD (Min Elp3 [5]) | binding result (Min Elp3 WT) |
| --- | --- | --- | --- | --- | --- | --- |
| C[S+](CC[C@H](N)C(=O)O)C[C@H]1O[C@@H](n2cnc3c(N)ncnc32)[C@H](O)[C@@H]1O (stereo partly drawn) [SAM] | Y304A (cyan triangles) mutants bind cofactor SAM with comparable affinity to WT Elp3 | Elp3-SAM binding was measured by triplicate microscale thermophoresis (MST) assays | E207A (dark blue triangles), K302A (light blue squares), and Y304A (cyan triangles) mutants bind cofactor SAM | K302A (light blue squares), and Y304A (cyan triangles) mutants bind cofactor SAM | Elp3 M156W (light blue squares) binds cofactor SAM with comparable affinity to WT Elp3 |  |
| tRNA ArgUCU (structured_RNA) RNA: GGACCCGUAGCCUAGCCUGGAUAGGGCACCGGCCUUCUAAGCCGGGGGUCGGGGGUUCAAAUCCCCCCGGGUCCGCCA |  |  |  |  |  | binds |
